The source of these data is PMC3847553, “Kinetic properties of “dual” orexin receptor antagonists at OX1R and OX2R orexin receptors” (Frontiers in Neuroscience, 2013).

Assay [1] concerns the target T1, human OX1R (Homo sapiens, UniProt O43613).
T1 construct: expressed in transfected cells; host or cells: CHO; cells from GNF, San Diego
T1 sequence (O43613 1-425): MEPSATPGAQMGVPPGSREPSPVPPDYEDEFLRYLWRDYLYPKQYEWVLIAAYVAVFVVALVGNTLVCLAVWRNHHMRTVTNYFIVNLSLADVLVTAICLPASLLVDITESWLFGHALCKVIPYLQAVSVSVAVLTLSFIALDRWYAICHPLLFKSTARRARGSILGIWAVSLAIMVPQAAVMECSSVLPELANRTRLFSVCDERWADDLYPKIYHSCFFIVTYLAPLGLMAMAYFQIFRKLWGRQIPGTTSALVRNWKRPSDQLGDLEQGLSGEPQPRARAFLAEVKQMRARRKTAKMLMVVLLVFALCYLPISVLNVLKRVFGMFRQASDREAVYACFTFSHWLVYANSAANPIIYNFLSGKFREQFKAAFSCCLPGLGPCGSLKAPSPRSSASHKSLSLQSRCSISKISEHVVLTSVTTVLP
The assay can be described thus: [3H]-BBAC competition binding over time, CHO-hOX1 membranes. An excerpt: (§1) Chinese Hamster Ovary (CHO) cells stably transfected with the cDNA encoding the human OX1R (CHO-hOX1) or OX2R (CHO-hOX2) were used (kindly provided by T. Cremer and Dr. S. Geisse, NIBR Basel, Switzerland). For measurements of calcium accumulation using FLIPR® (Fluorescent Imaging Plate Reader) assay, CHO or Human Embryonic Kidney (HEK) cells stably expressing mouse, rat or human OX1R or OX2R (kindly provided by Dr. A. Chen, GNF, San Diego, CA, USA) were used. […] Cells were maintained in a humidified incubator at 37°C in 5% CO2. For crude cell membrane preparations, cells were washed and harvested in 10 mM HEPES (pH 7.5), and centrifuged at 4°C for 5 min at 2500 g. The cell pellet was either stored at −80°C or used directly.
(§2) Cell membranes were resuspended in binding assay buffer at 4°C (10 mM HEPES, pH 7.5, 0.5% (w/v) bovine serum albumin (BSA), 5 mM MgCl2, 1 mM CaCl2, and 0.05% Tween 20) and homogenized with a Polytron homogenizer at 50 Hz for 20 s. […] Radioactivity was quantified using a TopCount™ microplate counter (Perkin Elmer).
(§3) All data was analyzed using GraphPad Prism 4.0 (GraphPad, San Diego, USA). The saturation data was fit to a non-linear regression model for saturation binding with consideration for one site binding. […] Competition binding data was fit to a non-linear regression model for competition binding with consideration for variable one site binding with a non-fixed Hill slope.

The target in the next assay is T2, mouse OX2R (Mus musculus, UniProt P58308).
T2 construct: expressed in transfected cells; host or cells: HEK; cells from GNF, San Diego
T2 sequence (P58308 1-460): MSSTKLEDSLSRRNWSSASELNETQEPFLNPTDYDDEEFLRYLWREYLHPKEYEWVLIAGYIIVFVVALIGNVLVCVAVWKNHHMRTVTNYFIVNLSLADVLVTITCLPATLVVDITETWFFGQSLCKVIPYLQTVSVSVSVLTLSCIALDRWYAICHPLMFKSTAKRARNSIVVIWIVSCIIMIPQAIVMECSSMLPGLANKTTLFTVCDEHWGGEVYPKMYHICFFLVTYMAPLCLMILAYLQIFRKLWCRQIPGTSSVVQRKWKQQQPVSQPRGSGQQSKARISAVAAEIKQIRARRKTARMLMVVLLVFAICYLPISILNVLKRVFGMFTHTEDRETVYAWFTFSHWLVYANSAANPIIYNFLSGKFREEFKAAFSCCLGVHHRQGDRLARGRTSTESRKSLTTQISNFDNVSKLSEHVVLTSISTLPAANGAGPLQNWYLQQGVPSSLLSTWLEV
Nature of the assay: FLIPR orexin A-stimulated calcium accumulation, mouse OX2R. Type of assay: cell-based. To be noted: HEK cells.
Description: as §1
(§4) Cells expressing either human, rat or mouse OX1R or OX2R were seeded at 8,000 cells/well in black 384 well clear bottom plates and incubated overnight at 37°C. The following day, medium was discarded and cells loaded with 50 μ l of 1 mM Fluo-4 AM (Invitrogen F14202) in dimethyl sulfoxide in working buffer (Hanks' balanced salt solution, 10 mM HEPES) and incubated for 60 min at 37°C. The loading buffer was removed and cells were washed with 100 μ l working buffer containing […], 0.1% BSA, and 2.5 mM Probenecid (pH 7.4) to remove the excess Fluo-4 AM. […] The assay plate was then transferred to the Molecular Devices-FLIPR384. The baseline calcium signal was recorded for 10 s, then the antagonist of interest was injected (10 μl at 3 times the final concentration) and the calcium signal recorded every second for 1 min, then every 2 s 40 times.

The target in a further assay is T3, human OX2R (Homo sapiens, UniProt O43614).
T3 construct: expressed in transfected cells; host or cells: CHO; cells from GNF, San Diego
T3 sequence (O43614 1-444): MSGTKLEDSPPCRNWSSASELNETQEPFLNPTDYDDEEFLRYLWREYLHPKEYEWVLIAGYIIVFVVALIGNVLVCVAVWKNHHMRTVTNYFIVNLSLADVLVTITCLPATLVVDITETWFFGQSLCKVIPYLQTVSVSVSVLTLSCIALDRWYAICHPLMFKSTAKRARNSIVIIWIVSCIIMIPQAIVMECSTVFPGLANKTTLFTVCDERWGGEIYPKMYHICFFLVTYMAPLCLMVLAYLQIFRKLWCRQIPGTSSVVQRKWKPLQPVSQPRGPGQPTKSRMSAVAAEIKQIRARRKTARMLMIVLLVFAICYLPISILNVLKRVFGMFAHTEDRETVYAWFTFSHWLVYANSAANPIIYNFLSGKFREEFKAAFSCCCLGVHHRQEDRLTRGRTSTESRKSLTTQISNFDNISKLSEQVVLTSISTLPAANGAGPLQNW
The assay can be described thus: [3H]-BBAC competition binding over time, CHO-hOX2 membranes. As to conditions: competition for 4.6 nM [3H]-BBAC, 15 min to 4 h, human OX2R.
Description: as §1, §2, §3

Assay [2] concerns the target T1, human OX1R. The assay can be described thus: FLIPR orexin A-stimulated calcium accumulation, human OX1R. Type of assay: cell-based. To be noted: CHO cells.
Description: as §1, §4

Where [3] appears, read: antagonist incubation 1 h, read-out: pKi (converted).
The mark [4] stands for this setting: antagonist incubation 2 h, read-out: pKi (converted).
Where [5] appears, read: antagonist incubation 4 h, read-out: pKi (converted).
[6] abbreviates: pKi, antagonist incubation 30 min.
The mark [7] stands for this setting: competition for 4.6 nM [3H]-BBAC, 15 min to 4 h, human OX1R.
Where [8] appears, read: antagonist incubation 30 min, read-out: pKi (converted).

The structures appear in SMILES notation. Read-outs that look alike come from different tables or passages of the source.

As for `CNC(=O)[C@@H](c1ccccc1)N1CCc2cc(OC)c(OC)cc2[C@@H]1CCc1ccc(C(F)(F)F)cc1` [Almorexant], the “effect of incubation time on competition curves” value (“effect of incubation time” for short) on human OX1R [1] is recorded as “shifted to the left with time moderately”; on human OX2R, “substantially”. Besides, the Ki is 9.33 nM on mouse OX2R (setting [3]), 8.13 nM at mouse OX2R (setting [4]), 4.17 nM at mouse OX2R (setting [5]) and 19.1 nM on mouse OX2R (setting [6]).

As to `Cc1ccc(-n2nccn2)c(C(=O)N2CCN(c3nc4cc(Cl)ccc4o3)CC[C@H]2C)c1` [Suvorexant], the “effect of incubation time” value on human OX1R [1] and at human OX2R was “shifted to the left over time” in each case. The Ki at mouse OX2R (setting [6]) was 10.2 nM; on mouse OX2R (pKi, antagonist incubation 1 h) it was 6.76 nM; at mouse OX2R (pKi, antagonist incubation 2 h) it was 5.75 nM; on mouse OX2R (pKi, antagonist incubation 4 h) it was 4.47 nM.

As for `Cc1ccc(-c2ncccn2)c(C(=O)N2C[C@H](COc3ccc(F)cn3)CC[C@H]2C)c1` [Filorexant], the “effect of incubation time” value on human OX1R [1] (setting [7]) is “rather insensitive to incubation time”; at human OX2R it was “shifted to the left over time, even up to 4 h”. Further, the Ki is 2.24 nM at human OX1R [2] (antagonist incubation 30 min); 1.62 nM on human OX1R [2] (antagonist incubation 1 h); 1.66 nM on human OX1R [2] (antagonist incubation 2 h); 2.82 nM at human OX1R [2] (antagonist incubation 4 h); 2.14 nM on mouse OX2R (setting [8]); 2.09 nM at mouse OX2R (setting [3]). Also, the Ki at mouse OX2R (setting [4]) is 1.45 nM; at mouse OX2R (setting [5]), 1.29 nM.

Regarding `Cc1nc(C(=O)N2CCCC[C@H]2CNC(=O)c2cccc3occc23)c(-c2ccc(F)cc2)s1` [SB-649868], the “effect of incubation time” value at human OX1R [1] (setting [7]) was “shifted to the left over time up to 4 h”; on human OX2R, “binding appeared to be rather stable”. Moreover, the Ki at human OX1R [2] (antagonist incubation 30 min) was 0.933 nM; on human OX1R [2] (antagonist incubation 1 h) it was 1.35 nM; at human OX1R [2] (antagonist incubation 2 h) it was 0.513 nM; at human OX1R [2] (antagonist incubation 4 h), 0.417 nM; on mouse OX2R (setting [8]), 1.82 nM; on mouse OX2R (setting [3]), 2.82 nM. The Ki on mouse OX2R (setting [4]) is 1.17 nM; on mouse OX2R (setting [5]), 0.912 nM.

Take `COc1ccnc(N2CCC3(CCCN(Cc4c[nH]c5ccccc45)C3=O)CC2)n1` [IPSU, 2-((1H-Indol-3-yl)methyl)-9-(4-methoxypyrimidin-2-yl)-2,9-diazaspiro[5.5]undecan-1-one]: the “effect of incubation time” value at human OX1R [1] (setting [7]) and on human OX2R was “do not show time-dependency” in each case. In addition, the Ki at human OX1R [2] (antagonist incubation 30 min) was 479 nM; at human OX1R [2] (antagonist incubation 4 h), 724 nM; at mouse OX2R (setting [8]), 70.8 nM; at mouse OX2R (setting [3]), 79.4 nM; on mouse OX2R (setting [4]) it was 55 nM; at mouse OX2R (setting [5]), 60.3 nM. Also, the pKi is reported as 6.29 −log M at human OX1R [2] (antagonist incubation 1 h) and 6.28 −log M on human OX1R [2] (antagonist incubation 2 h).
